Target: recombinant human integrin αvβ6 (Homo sapiens (Human), UniProt P06756+P18564)
Assay: Solid phase integrin αvβ6 binding assay
Details: TGFβ1 LAP as ligand, IC50 presented in four ranges, read-out: αvβ6 Inhibition IC50 (nM) - range
Experimental: (§1) Microplates were coated with recombinant human integrin αvβ6 (2 μg/mL) in PBS (100 μL/well 25° C., overnight). The coating solution was removed, washed with wash buffer (0.05% Tween 20; 0.5 mM MnCl2; in 1×TBS). The plate was blocked with 200 μL/well of Block Buffer (1% BSA; 5% sucrose; 0.5 mM MnCl2; in 1×TBS) at 37° C. for 2 h. Dilutions of testing compounds and recombinant TGFβ1 LAP (0.67 μg/mL) in binding buffer (0.05% BSA; 2.5% sucrose; 0.5 mM MnCl2; in 1×TBS) were added. The plate was incubated for 2 hours at 25° C., washed, and incubated for 1 hour with Biotin-Anti-hLAP. Bound antibody was detected by peroxidase-conjugated streptavidin. The IC50 values for testing compounds were calculated by a four-parameter logistic regression.
The compounds tested were compound samples prepared according to procedures described in the Synthetic Examples section, with the stereochemical purity as indicated in the Examples.
as §1, with “A third series of exemplary compounds was selected for testing in the solid phase integrin αvβ6 binding assay. The compounds tested were compound samples prepared according to procedures described in the Synthetic Examples section, with the stereochemical purity as indicated in the Examples. As in Example B1, microplates” for “Microplates”

recombinant human integrin αvβ6, sequence (P06756 31-992): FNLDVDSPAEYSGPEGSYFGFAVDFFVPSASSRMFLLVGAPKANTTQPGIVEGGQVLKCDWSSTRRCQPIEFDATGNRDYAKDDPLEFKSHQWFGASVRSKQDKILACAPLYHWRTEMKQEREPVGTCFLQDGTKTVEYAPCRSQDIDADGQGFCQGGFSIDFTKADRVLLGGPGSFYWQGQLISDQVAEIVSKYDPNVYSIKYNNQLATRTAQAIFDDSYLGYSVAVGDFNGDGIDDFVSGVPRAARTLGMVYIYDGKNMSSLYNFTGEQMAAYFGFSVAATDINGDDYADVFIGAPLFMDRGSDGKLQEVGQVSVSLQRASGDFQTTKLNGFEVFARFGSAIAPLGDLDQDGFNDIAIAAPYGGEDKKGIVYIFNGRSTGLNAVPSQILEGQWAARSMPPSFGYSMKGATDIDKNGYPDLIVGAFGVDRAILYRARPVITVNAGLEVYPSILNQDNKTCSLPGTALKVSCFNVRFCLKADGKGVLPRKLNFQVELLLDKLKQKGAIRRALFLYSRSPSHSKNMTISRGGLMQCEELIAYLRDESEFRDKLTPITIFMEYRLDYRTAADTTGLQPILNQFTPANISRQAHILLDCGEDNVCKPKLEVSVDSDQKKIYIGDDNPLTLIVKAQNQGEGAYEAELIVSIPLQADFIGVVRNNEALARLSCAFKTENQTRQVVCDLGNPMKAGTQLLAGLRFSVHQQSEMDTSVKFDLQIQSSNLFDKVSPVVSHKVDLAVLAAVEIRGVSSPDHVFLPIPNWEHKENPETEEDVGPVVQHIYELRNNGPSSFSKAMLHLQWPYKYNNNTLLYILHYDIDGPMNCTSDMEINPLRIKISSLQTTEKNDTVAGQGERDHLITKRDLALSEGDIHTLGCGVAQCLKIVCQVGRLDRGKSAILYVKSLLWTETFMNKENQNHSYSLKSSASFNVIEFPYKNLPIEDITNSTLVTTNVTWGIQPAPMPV
recombinant human integrin αvβ6, sequence (P18564 22-707): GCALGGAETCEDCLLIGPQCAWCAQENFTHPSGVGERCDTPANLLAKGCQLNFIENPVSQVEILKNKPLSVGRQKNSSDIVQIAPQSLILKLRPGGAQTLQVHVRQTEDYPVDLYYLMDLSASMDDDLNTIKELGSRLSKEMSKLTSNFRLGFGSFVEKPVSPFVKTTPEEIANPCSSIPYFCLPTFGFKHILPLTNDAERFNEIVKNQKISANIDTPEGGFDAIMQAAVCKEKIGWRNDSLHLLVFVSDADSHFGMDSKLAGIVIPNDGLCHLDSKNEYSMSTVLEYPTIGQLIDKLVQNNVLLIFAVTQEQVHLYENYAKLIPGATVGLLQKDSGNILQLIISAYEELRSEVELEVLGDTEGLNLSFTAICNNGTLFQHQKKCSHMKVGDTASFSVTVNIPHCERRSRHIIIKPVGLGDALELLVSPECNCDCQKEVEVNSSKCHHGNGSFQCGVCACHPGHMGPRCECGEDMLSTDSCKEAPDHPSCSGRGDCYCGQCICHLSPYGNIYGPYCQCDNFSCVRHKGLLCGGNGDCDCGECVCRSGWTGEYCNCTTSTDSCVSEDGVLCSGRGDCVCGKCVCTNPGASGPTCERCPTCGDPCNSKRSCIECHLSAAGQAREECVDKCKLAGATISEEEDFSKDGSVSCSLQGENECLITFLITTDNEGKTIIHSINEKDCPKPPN

| Structure (SMILES) | IC50 [nM] |
| --- | --- |
| O=C(O)[C@H](CCN(CCCCc1ccc2c(n1)NCCC2)C1CC1)Nc1ccncn1 [Compound 2, (S)-4-(cyclopropyl(4-(5,6,7,8-tetrahydro-1,8-naphthyridin-2-yl)butyl)amino)-2-(pyrimidin-4-ylamino) butanoic acid] | 250 to 1000 |
| CO[C@H](C)CN(CCCCc1ccc2c(n1)NCCC2)CC[C@H](Nc1ncncc1-c1ccccc1)C(=O)O [Compound 81, (S)-4-(((R)-2-methoxypropyl) (4-(5,6,7,8-tetrahydro-1,8-naphthyridin-2-yl)butyl)amino)-2-((5-phenylpyrimidin-4-yl)amino) butanoic acid] | < 50 |
| COC[C@@H](F)CN(CCCCc1ccc2c(n1)NCCC2)CC[C@H](Nc1ncc(C#N)cn1)C(=O)O [Compound 84, (S)-2-((5-cyanopyrimidin-2-yl)amino)-4-(((S)-2-fluoro-3-methoxypropyl) (4-(5,6,7,8-tetrahydro-1,8-naphthyridin-2-yl)butyl)amino) butanoic acid] | 250 to 1000 |
| Cn1ncc2c(N[C@@H](CCN(CCCCc3ccc4c(n3)NCCC4)CCS(C)(=O)=O)C(=O)O)ncnc21 [Compound 101, (S)-2-((1-methyl-1H-pyrazolo[3,4-d]pyrimidin-4-yl)amino)-4-((2-(methylsulfonyl)ethyl) (4-(5,6,7,8-tetrahydro-1,8-naphthyridin-2-yl)butyl)amino) butanoic acid] | 50 to 250 |
| COC[C@@H](F)CN(CCCCc1ccc2c(n1)NCCC2)CC[C@H](Nc1ccncn1)C(=O)O [Compound 127, (S)-4-(((S)-2-fluoro-3-methoxypropyl) (4-(5,6,7,8-tetrahydro-1,8-naphthyridin-2-yl)butyl)amino)-2-(pyrimidin-4-ylamino) butanoic acid] | 250 to 1000 |

More lines, now with the values ahead:

| IC50 [nM] | Structure (SMILES) |
| --- | --- |
| 50 to 250 | O=C(O)[C@H](CCN(CCCCc1ccc2c(n1)NCCC2)CCC(F)F)Nc1ncc(Br)cn1 [Compound 131, (S)-2-((5-bromopyrimidin-2-yl)amino)-4-((3,3-difluoropropyl) (4-(5,6,7,8-tetrahydro-1,8-naphthyridin-2-yl)butyl)amino) butanoic acid] |
| 50 to 250 | O=C(O)[C@H](CCN(CCCCc1ccc2c(n1)NCCC2)CCC(F)F)Nc1ncc(C2CC2)cn1 [Compound 135, (S)-2-((5-cyclopropylpyrimidin-2-yl)amino)-4-((3,3-difluoropropyl) (4-(5,6,7,8-tetrahydro-1,8-naphthyridin-2-yl)butyl)amino) butanoic acid] |

From patent US11560376B2, “Amino acid compounds and methods of use” (Pliant Therapeutics, Inc., priority 2018, dated 2023)
